Data from PubChem BioAssay AID256 (DTP/NCI, 2004).
“And” between values parts separate entries of the source, which are not always exact repeats. Equal values may be shown once. Toxic doses and inconclusive results are not listed.

System: CD2F1 mice, L1210 leukemia ip, survival T/C
Test: NCI In Vivo Anticancer Drug Screen. Data for tumor model L1210 Leukemia (intraperitoneal) in CD2F1 (CDF1) mice
Conditions: endpoint: mean survival time, higher = longer survival
Outline: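 Transplantable tumor in mice; compound-treated vs vehicle-treated groups. Read-out = treated/control ratio of the measured endpoint.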

[1] = dose: 100.0 mg/kg/injection, schedule: Q04DX003 (ip), vehicle: saline with Tween-80
[2] = dose: 200.0 mg/kg/injection, schedule: Q04DX003 (ip), vehicle: saline with Tween-80
[3] = dose: 400.0 mg/kg/injection, schedule: Q04DX003 (ip), vehicle: saline with Tween-80
[4] = dose: 100.0 mg/kg/injection, schedule: Q01DX001 (ip), vehicle: saline with Tween-80
[5] = dose: 100.0 mg/kg/injection, schedule: Q04DX003 (ip), vehicle: saline
[6] = dose: 200.0 mg/kg/injection, schedule: Q04DX003 (ip), vehicle: saline
[7] = dose: 400.0 mg/kg/injection, schedule: Q04DX003 (ip), vehicle: saline

O=C(OC1CCCCC1c1ccccc1)c1ccc([N+](=O)[O-])cc1 (stereo not given)
T/C [1]: 90 % of control
T/C [2]: 98 % of control
T/C [3]: 90 % of control

CCCCC1(C(=O)OCC)SCCCS1
T/C (dose: 50.0 mg/kg/injection, schedule: Q04DX002 (ip), vehicle: saline with Tween-80): 94 % of control
T/C (dose: 100.0 mg/kg/injection, schedule: Q04DX002 (ip), vehicle: saline with Tween-80): 105 % of control
T/C (dose: 200.0 mg/kg/injection, schedule: Q04DX002 (ip), vehicle: saline with Tween-80): 97 % of control

CCNC(=O)OCc1c(COC(=O)NCC)c(-c2ccc(Cl)c(Cl)c2)n2c1CCC2
T/C (dose: 0.78 mg/kg/injection, schedule: Q01DX009 (ip), vehicle: saline with Tween-80): 101 % of control
T/C (dose: 1.56 mg/kg/injection, schedule: Q01DX009 (ip), vehicle: saline with Tween-80): 108 % of control
T/C (dose: 50.0 mg/kg/injection, schedule: Q01DX009 (ip), vehicle: saline with Tween-80): 91 % of control and 94 % of control and 111 % of control

O=C(O)C1=CCC=CC1
T/C (dose: 100.0 mg/kg/injection, schedule: Q01DX009 (ip), vehicle: saline with Tween-80): 104 % of control
T/C (dose: 200.0 mg/kg/injection, schedule: Q01DX009 (ip), vehicle: saline with Tween-80): 97 % of control
T/C (dose: 400.0 mg/kg/injection, schedule: Q01DX009 (ip), vehicle: saline with Tween-80): 106 % of control

N=c1sc2ccccc2n1CC(=O)O
T/C [4]: 100 % of control

CCCCCCCCCc1ccc(OCCOCCOCCOCCOCCOCCOCCOCCOCCOC(C)N2CCCC2=O)cc1 (stereo not given)
T/C (dose: 25.0 mg/kg/injection, schedule: Q01DX009 (ip), vehicle: saline with Tween-80): 96 % of control
T/C (dose: 50.0 mg/kg/injection, schedule: Q04DX003 (ip), vehicle: saline with Tween-80): 108 % of control
T/C [1]: 93 % of control

CC1(C)N=C(N)N=C(N)N1c1cc(Cl)cc(CCNC(=O)Nc2ccc(S(=O)(=O)F)cc2)c1
T/C [4]: 92 % of control

O=C(O)CSCSCC(=O)O
T/C [5]: 97 % of control
T/C [6]: 100 % of control
T/C [7]: 97 % of control

COc1cc(C=Nc2ccc(-n3ccnc3C)cc2)ccc1N(CCCl)CCCl
T/C (dose: 2.5 mg/kg/injection, schedule: Q01DX009 (ip), vehicle: saline with Tween-80): 98 % of control
T/C (dose: 5.0 mg/kg/injection, schedule: Q01DX009 (ip), vehicle: saline with Tween-80): 113 % of control
T/C (dose: 10.0 mg/kg/injection, schedule: Q01DX009 (ip), vehicle: saline with Tween-80): 112 % of control
T/C (dose: 20.0 mg/kg/injection, schedule: Q01DX009 (ip), vehicle: saline with Tween-80): 117 % of control

O=C(OC1C2C=COC(OC3OC(CO)C(O)C(O)C3O)C2C2(CO)OC12)c1ccc(O)cc1 (stereo not given)
T/C (dose: 25.0 mg/kg/injection, schedule: Q01DX001 (ip), vehicle: carboxymethylcellulose (CMC)): 101 % of control
T/C (dose: 50.0 mg/kg/injection, schedule: Q01DX001 (ip), vehicle: carboxymethylcellulose (CMC)): 98 % of control
T/C (dose: 100.0 mg/kg/injection, schedule: Q01DX001 (ip), vehicle: carboxymethylcellulose (CMC)): 89 % of control

O=C1c2cccc(O)c2C(=O)c2cccc(O)c21
T/C [1]: 102 % of control
T/C [2]: 94 % of control
T/C [3]: 105 % of control

Clc1ccccc1-c1nc2ccccc2s1
T/C [4]: 91 % of control
T/C [1]: 97 % of control
T/C (dose: 200.0 mg/kg/injection, schedule: Q01DX001 (ip), vehicle: saline with Tween-80): 91 % of control
T/C [2]: 96 % of control
T/C (dose: 400.0 mg/kg/injection, schedule: Q01DX001 (ip), vehicle: saline with Tween-80): 91 % of control
T/C [3]: 92 % of control

O=C(NCCCCCCCCNC(=O)N1CC1)N1CC1
T/C (dose: 1.5 mg/kg/injection, schedule: Q01DX001 (ip), vehicle: carboxymethylcellulose (CMC)): 117 % of control
T/C (dose: 2.25 mg/kg/injection, schedule: Q01DX001 (ip), vehicle: carboxymethylcellulose (CMC)): 111 % of control
T/C (dose: 3.3 mg/kg/injection, schedule: Q01DX001 (ip), vehicle: carboxymethylcellulose (CMC)): 121 % of control
T/C (dose: 5.0 mg/kg/injection, schedule: Q01DX001 (ip), vehicle: carboxymethylcellulose (CMC)): 122 % of control
T/C (dose: 7.5 mg/kg/injection, schedule: Q01DX001 (ip), vehicle: carboxymethylcellulose (CMC)): 152 % of control
T/C (dose: 11.0 mg/kg/injection, schedule: Q01DX001 (ip), vehicle: carboxymethylcellulose (CMC)): 183 % of control

CN(C)c1ccc(C=C(Cl)Cl)cc1
T/C (dose: 100.0 mg/kg/injection, schedule: Q04DX002 (ip), vehicle: other): 87 % of control
T/C (dose: 200.0 mg/kg/injection, schedule: Q04DX002 (ip), vehicle: other): 91 % of control
T/C (dose: 400.0 mg/kg/injection, schedule: Q04DX002 (ip), vehicle: other): 93 % of control

O=C(O)C1C2CC3C(C2)C31 (stereo not given)
T/C (dose: 100.0 mg/kg/injection, schedule: Q01DX009 (ip), vehicle: other): 96 % of control
T/C (dose: 200.0 mg/kg/injection, schedule: Q01DX009 (ip), vehicle: other): 104 % of control

COC(=O)C1=CCN(C)CC1
T/C [5]: 97 % of control
T/C [6]: 96 % of control
T/C [7]: 90 % of control
